Calls of active or inactive are those of the source. The calls are words filed in the database; no cut-off is given here.
Key:
[1] = Inhibition of quorum sensing system in Pseudomonas aeruginosa PAO1-lasB-gfp assessed as reduction in GFP expression incubated for 14 hrs
[2] = Inhibition of quorum sensing system in Pseudomonas aeruginosa PAO1 assessed as reduction in elastase level using BODIPY-FL-labeled DQ elastin conjugate as substrate measured after 24 hrs by fluorometric method
Pseudomonas aeruginosa [3] = assay: Anti-biofilm activity against Pseudomonas aeruginosa PAO1 assessed as reduction in biofilm formation incubated for 24 hrs by crystal violet staning based analysis; format: functional, organism-based
Pseudomonas aeruginosa [4] = assay: Anti-biofilm activity against Pseudomonas aeruginosa PAO1 assessed as suppression of biofilm formation at 1.25 to 10 uM incubated for 24 hrs by PI staining based confocal fluorescence microscopy based analysis; format: functional, organism-based; settings: dose 1.25-10 µM
[5] = Cytotoxicity against African green monkey Vero cells assessed as reduction in cell viability at <20 uM measured after 24 hrs by MTT assay; format: toxicity, cell-based; settings: chlorocebus sabaeus
[6] = Cytotoxicity against African green monkey Vero cells assessed as reduction in cell viability at 50 uM measured after 24 hrs by MTT assay; format: toxicity, cell-based; settings: chlorocebus sabaeus
Erythrocyte [7] = assay: Hemolytic activity in human erythrocytes assessed as hemolysis at 0.625 to 10 micromol/L measured after 4 hrs by microplate reader method; format: toxicity, cell-based; settings: dose 0.625-10 µmol/L
Erythrocyte [8] = assay: Hemolytic activity in mouse erythrocytes assessed as hemolysis at 0.625 to 10 micromol/L measured after 4 hrs by microplate reader method; format: toxicity, cell-based; settings: dose 0.625-10 µmol/L
Danio rerio = species on record: Danio rerio; assay: Inhibition of macrophage migration in 4 days post fertilized Zebra fish AB embryo assessed as reduction in green fluorescence at 10 micromol/L measured after 4 to 6 hrs by fluorescence microscope based analysis; format: functional, organism-based; settings: dose 10.0 µmol/L, time […]
[9] = Toxicity in Zebra fish AB embryo assessed as viability of zebrafish larvae at <50 uM measured upto 120 hrs post fertilization by stereomicroscopic analysis; set-up: species or system Danio rerio
RAW264.7 [10] = assay: Antiinflammatory activity in LPS-induced mouse RAW264.7 cells assessed as inhibition of IL-1 beta production pretreated for 3 hrs followed by LPS stimulation and measured after 24 hrs by ELISA method; format: functional, cell-based
RAW264.7 [11] = assay: Antiinflammatory activity in LPS-induced mouse RAW264.7 cells assessed as inhibition of IL-6 production pretreated for 3 hrs followed by LPS stimulation and measured after 24 hrs by ELISA method; format: functional, cell-based
RAW264.7 [12] = assay: Antiinflammatory activity in LPS-induced mouse RAW264.7 cells assessed as decrease in iNOS expression level pretreated for 3 hrs followed by LPS stimulation and measured after 24 hrs by Western blot analysis; format: functional, cell-based; settings: dose 1.25-10 µmol/L, time 27.0 hrs
RAW264.7 [13] = assay: Antiinflammatory activity in LPS-induced mouse RAW264.7 cells assessed as decrease in NLRP3 expression level pretreated for 3 hrs followed by LPS stimulation and measured after 24 hrs by Western blot analysis; format: functional, cell-based; settings: dose 1.25-10 µmol/L, time 27.0 hrs
RAW264.7 [14] = assay: Antiinflammatory activity in mouse RAW264.7 cells assessed as reduction in COX-2 mRNA expression at 2.5 to 10 uM by RT-PCR analysis; format: functional, cell-based; settings: dose 2.5-10 µM
RAW264.7 [15] = assay: Antiinflammatory activity in mouse RAW264.7 cells assessed as reduction in iNOS mRNA expression at 2.5 to 10 uM by RT-PCR analysis; format: functional, cell-based; settings: dose 2.5-10 µM
RAW264.7 [16] = assay: Antiinflammatory activity in mouse RAW264.7 cells assessed as reduction in IL-1 beta mRNA expression at 2.5 to 10 uM by RT-PCR analysis; format: functional, cell-based; settings: dose 2.5-10 µM
RAW264.7 [17] = assay: Antiinflammatory activity in mouse RAW264.7 cells assessed as reduction in TNF alpha mRNA expression at 2.5 to 10 uM by RT-PCR analysis; format: functional, cell-based; settings: dose 2.5-10 µM
RAW264.7 [18] = assay: Antiinflammatory activity in LPS-induced mouse RAW264.7 cells assessed as inhibition of NF-kappaB p65 expression pretreated for 3 hrs followed by LPS stimulation and measured after 24 hrs by Western blot analysis; format: functional, cell-based; settings: dose 1.25-10 µmol/L, time 27.0 hrs
RAW264.7 [19] = assay: Antiinflammatory activity in LPS-induced mouse RAW264.7 cells assessed as inhibition of IkappaB-alpha expression pretreated for 3 hrs followed by LPS stimulation and measured after 24 hrs by Western blot analysis; format: functional, cell-based; settings: dose 1.25-10 µmol/L, time 27.0 hrs
RAW264.7 [20] = assay: Inhibition of LPS-induced ROS production in mouse RAW264.7 cells by DCFH-DA staining based fluorescence method; format: functional, cell-based
RAW264.7 [21] = assay: Inhibition of JNK signaling in mouse RAW264.7 cells assessed as reduction in LPS induced JNK phosphorylation by Western blot analysis; format: cell-based
RAW264.7 [22] = assay: Inhibition of ERK signaling in mouse RAW264.7 cells assessed as reduction in LPS induced ERK phosphorylation by Western blot analysis; format: cell-based
Mus musculus [23] = assay: Anti-inflammatory activity against LPS-induced acute lung injury mouse model assessed as reduction in myeloperoxidase activity at 1 to 2 mg/kg, po preincubated for 4 hrs followed by LPS stimulation and measured after 6 hrs by spectrophotometer analysis; format: functional, organism-based; settings: dose 1-2 mg/kg, time 10.0 hrs
Mus musculus [24] = assay: Anti-inflammatory activity against LPS-induced acute lung injury mouse model assessed as downregulation of IL-1 beta level administered as po dose preincubated for 4 hrs followed by LPS stimulation and measured after 6 hrs by ELISA method; format: functional, organism-based; settings: dose 1-2 mg/kg, time 10.0 hrs
Mus musculus [25] = assay: Anti-inflammatory activity against LPS-induced acute lung injury mouse model assessed as downregulation of TNF-alpha level administered as po dose preincubated for 4 hrs followed by LPS stimulation and measured after 6 hrs by ELISA method; format: functional, organism-based; settings: dose 1-2 mg/kg, time 10.0 hrs
Mus musculus [26] = assay: Anti-inflammatory activity against LPS-induced acute lung injury mouse model assessed as reduction in COX-2 mRNA expression at 1 to 2 mg/kg, po preincubated for 4 hrs followed by LPS stimulation and measured after 6 hrs; format: functional, organism-based; settings: dose 1-2 mg/kg, time 10.0 hrs
Mus musculus [27] = assay: Anti-inflammatory activity against LPS-induced acute lung injury mouse model assessed as reduction in IL-1 beta mRNA expression at 1 to 2 mg/kg, po preincubated for 4 hrs followed by LPS stimulation and measured after 6 hrs; format: functional, organism-based; settings: dose 1-2 mg/kg, time 10.0 hrs
Mus musculus [28] = assay: Anti-inflammatory activity against LPS-induced acute lung injury mouse model assessed as reduction in TNF-alpha mRNA expression at 1 to 2 mg/kg, po preincubated for 4 hrs followed by LPS stimulation and measured after 6 hrs; format: functional, organism-based; settings: dose 1-2 mg/kg, time 10.0 hrs
Mus musculus [29] = assay: Protection against LPS-induced acute lung injury mouse model assessed as inhibition of neutrophil infiltration at 1 to 2 mg/kg, po preincubated for 4 hrs followed by LPS stimulation and measured after 6 hrs by H and E staining based analysis; format: functional, organism-based; settings: dose 1-2 mg/kg, time 10.0 hrs
Mus musculus [30] = assay: Protection against LPS-induced acute lung injury mouse model assessed as inhibition of edema at 1 to 2 mg/kg, po preincubated for 4 hrs followed by LPS stimulation and measured after 6 hrs by H and E staining based analysis; format: functional, organism-based; settings: dose 1-2 mg/kg, time 10.0 hrs
[31] = Toxicity in BALB/c mouse assessed as effect on heart at 2 to 4 mg/kg, PO measured after 7 days by H and E staining based analysis; format: organism-based; settings: in vivo, 168 h, dose 2-4 mg/kg, time 7 day
[32] = Toxicity in BALB/c mouse assessed as effect on liver at 2 to 4 mg/kg, PO measured after 7 days by H and E staining based analysis; format: organism-based; settings: in vivo, 168 h, dose 2-4 mg/kg, time 7 day
[33] = Toxicity in BALB/c mouse assessed as effect on lung at 2 to 4 mg/kg, PO measured after 7 days by H and E staining based analysis; format: organism-based; settings: in vivo, 168 h, dose 2-4 mg/kg, time 7 day

CCCCC1(O)C2=C(C=CCC2)C(=O)N1Cc1ccc(C(F)(F)F)cc1 (configuration not stated)
IC50 [1]: 8.7 µM
inhibition ([1]; dose 0.625-10 µM): Dose-Dependent Effect
IC50 [2]: 7.3 µM
inhibition ([2]; dose 0.625-10 µM): Dose-Dependent Effect
IC50 (Pseudomonas aeruginosa [3]; PAO1, 24 h): 7.4 µM
Activity (Pseudomonas aeruginosa [3]; dose 0.625-10 µM): Dose-Dependent Effect
Activity (Pseudomonas aeruginosa [4]): Dose-Dependent Effect
Activity [5]: Non-Toxic
Activity [6]: Toxic
Activity (Erythrocyte [7]): Toxic
Activity (Erythrocyte [8]): Toxic
inhibition (Danio rerio): Active
Activity [9]: Non-Toxic
IC50 (RAW264.7 [10]): 18.2 µM
IC50 (RAW264.7 [11]): 2.61 µM
Activity (RAW264.7 [12]): Dose-Dependent Effect
Activity (RAW264.7 [13]): Dose-Dependent Effect
Activity (RAW264.7 [14]): Active
Activity (RAW264.7 [15]): Active
Activity (RAW264.7 [16]): Active
Activity (RAW264.7 [17]): Active
Activity (RAW264.7 [18]): Dose-Dependent Effect
Activity (RAW264.7 [19]): Dose-Dependent Effect
IC50 (RAW264.7 [20]): 1.44 µM
inhibition (RAW264.7 [21]): Active
inhibition (RAW264.7 [22]): Active
Activity (Mus musculus [23]): Active
Activity (Mus musculus [24]): Dose-Dependent Effect
Activity (Mus musculus [25]): Dose-Dependent Effect
Activity (Mus musculus [26]): Active
Activity (Mus musculus [27]): Active
Activity (Mus musculus [28]): Active
Activity (Mus musculus [29]): Active
Activity (Mus musculus [30]): Active
Activity [31]: Non-Toxic
Activity [32]: Non-Toxic
Activity [33]: Non-Toxic
